One molecule from patent US20030158250A1, “Agents correcting gene expression regulatory error” (priority 2000, published 2003) can be followed below.

The experiment relates to HO1 protein. As to the kind of experiment: HO1 protein induction in RAW 264.7 cells (Western blot). Format: cell-based. Details: key to Intensity of Bands of HO1 Protein: those showing no bands are indicated by “−,”; the intensities of the bands are indicated by +−, +, ++ in the ascending order of the intensities of the bands; the intensities of the bands are indicated by +−, +, ++ in the ascending order of the intensities of the bands; the intensities of the bands are indicated by +−, +, ++ in the ascending order of the intensities of the bands. The conditions noted are these: 15 hours. As for the experimental part: RAW 264.7 cells (ATCC TIB 71) were suspended in a Dulbecco's modified Eagle's medium (manufactured by Bio Whittaker; 12-604F) containing 10% fetal bovine serum (manufactured by Gibco), so as to have a concentration of 3×10^5 cells/ml. The cell suspension was added to each well of a 6-well microtiter plate in a volume of 5 ml each. The cells were cultured at 37° C. in the presence of 5% CO2 gas overnight. To each well was added 50 μl of 4 mM, 2 mM or 1 mM DGE aqueous solution (each of final concentrations: 40 μM, 20 μM or 10 μM), and the cells were cultured for 15 hours. […] The cells were harvested by peeling off the cells from the plate with a scraper. The harvested cells were suspended in 0.1 M Tris-HCl buffer (pH 7.5) containing 0.05 mM pepstatin (manufactured by Sigma, P5318), 0.2 mM leupeptin (manufactured by Sigma, L2884), 1 mM phenylmethylsulfonyl fluoride (manufactured by nakalai tesque, 273-27), 10 mM disodium dihydrogenethylenediaminetetraacetate and 0.1% Triton X-100, and subjected to freezing and thawing once. Thereafter, the supernatant obtained by centrifugation was used as a protein fraction. The protein content in the protein fraction was assayed by Micro BCA Protein Assay Reagent (one manufactured by Pierce sold by Takara Shuzo Co., Ltd., P7411). Each of the resulting protein fraction samples was mixed with an equal volume of 0.125 M Tris-HCl buffer (pH 6.8) containing 4% sodium lauryl sulfate (SDS), 2% 2-mercaptoethanol,
0.001% Bromophenol Blue and 20% glycerol, and the mixture was treated at 100° C. for 5 minutes. A mixture containing a protein in an amount of 10 μg or so was loaded on 12.5% SDS-polyacrylamide gel, and electrophoresed with a constant current of 20 mA. In a blotting buffer containing 48 mM Tris, 39 mM glycine, 20% methanol, 0.0375% SDS, the gel after the electrophoresis was transferred to a PDVF membrane (manufactured by Millipore Corporation, IPVHOOO 10) in accordance with the attached protocol, using transblot SD cell semi-drive blotting device (manufactured by BioRad), at a constant voltage of 15 V for 25 minutes. The transferred PVDF membrane was blocked overnight in a Block Ace (manufactured by DAINIPPON PHARMACEUTICAL CO., LTD., UK-B25) solution at 4° C. The blocked membrane was washed for 15 minutes thrice with phosphate-buffered physiological saline containing 0.1% Tween 20 under gentle shaking. Thereafter, the membrane was subjected to the reaction under gentle shaking in phosphate-buffered physiological saline containing 10% Block Ace with a 200 ng/ml anti-HOl antibody (N-19, manufactured by Santa Cruz, sc-7696) and 0.1% Tween 20 at room temperature for 1 hour, and was washed for 15 minutes thrice with phosphate-buffered physiological saline containing 0.1% Tween 20 under gentle shaking. Next, the membrane was subjected to the reaction under gentle shaking in phosphate-buffered physiological saline with 10% Block Ace with 0.1% peroxidase-conjugated rabbit anti-goat IgG (H+L) antibody (manufactured by Zymed, 61-1620) and 0.1% Tween 20 at room temperature for 1 hour, and was washed for 15 minutes five times with phosphate-buffered physiological saline containing 0.1% Tween 20 under gentle shaking. Subsequently, a PVDF membrane was stained by using Western blot Chemiluminescence Reagent Plus (one manufactured by NEN Life Science Products sold by Daiichikagaku, NEL103) in accordance with the attached protocol, and sensitized on an X-ray film (manufactured by Kodak, CAT 1651454). The sensitized film was developed with FPM800 (manufactured by Fuji Photo Film Co., Ltd.).
As a result, there could be confirmed a band ascribed to HO1 protein in the group with addition of DGE. […] In the table, + symbols were given in accordance with the intensity of the band for HO1 protein. In other words, in Table 3, those showing no bands are indicated by “−,” and the intensities of the bands are indicated by +−, +, ++ in the ascending order of the intensities of the bands.
(In general: A western blot detects proteins with antibodies after separation by electrophoresis.)

With `O=C1C=CC(CO)OC1O` [DGE, L-glycero-1,5-epoxy-1αβ,6-dihydroxy-cis-hex-3-en-2-one], the “induction action for HO production (band ascribed to HO1 protein)” value (DGE at 10 to 40 μM) is listed as “DGE concentration-dependent”. Besides, the “Intensity of Bands of HO1 Protein” value (final concentration 10 μM) is on record as “+−”, the “Intensity of Bands of HO1 Protein” value (final concentration 20 μM) is given as “+” and the “Intensity of Bands of HO1 Protein” value (final concentration 40 μM) was “++”.
